Measured values from the supplement of paper PMC11451515.

Tested on: P12-Ichikawa
Experiment: cell viability relative to DMSO control; higher = less cytotoxic
Details: 48 h
How it was run: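 Leukemia cells (NOMO1 or SEM, 500 cells/well; P12-Ichikawa, 1000 cells/well) were seeded in 5 μl in 1536-well plates after at least four passages of adaptation to each medium. They received library compounds in DMSO by pin dosing, 11 threefold points from 47 μM to 0.79 nM. Luminescence with CellTiter-Glo One was read after 48 h at 37°C. Viability is stated per plate relative to DMSO wells, with cell-free wells as background.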

[1] = HPLM + 10% dialyzed FBS, 0.000781 µM
[2] = HPLM + 10% dialyzed FBS, 0.00234 µM
[3] = HPLM + 10% dialyzed FBS, 0.00702 µM
[4] = HPLM + 10% dialyzed FBS, 0.0211 µM
[5] = HPLM + 10% dialyzed FBS, 0.0632 µM
[6] = HPLM + 10% dialyzed FBS, 0.19 µM
[7] = HPLM + 10% dialyzed FBS, 0.569 µM
[8] = HPLM + 10% dialyzed FBS, 1.71 µM
[9] = HPLM + 10% dialyzed FBS, 5.12 µM
[10] = HPLM + 10% dialyzed FBS, 15.4 µM
[11] = HPLM + 10% dialyzed FBS, 46.1 µM
[12] = RPMI 5 mM glucose + 10% FBS, 0.000781 µM
[13] = RPMI 5 mM glucose + 10% FBS, 0.00234 µM
[14] = RPMI 5 mM glucose + 10% FBS, 0.00702 µM
[15] = RPMI 5 mM glucose + 10% FBS, 0.0211 µM
[16] = RPMI 5 mM glucose + 10% FBS, 0.0632 µM
[17] = RPMI 5 mM glucose + 10% FBS, 0.19 µM
[18] = RPMI 5 mM glucose + 10% FBS, 0.569 µM
[19] = RPMI 5 mM glucose + 10% FBS, 1.71 µM
[20] = RPMI 5 mM glucose + 10% FBS, 5.12 µM
[21] = RPMI 5 mM glucose + 10% FBS, 15.4 µM
[22] = RPMI 5 mM glucose + 10% FBS, 46.1 µM
[23] = RPMI 5 mM glucose + 10% dialyzed FBS, 0.000781 µM
[24] = RPMI 5 mM glucose + 10% dialyzed FBS, 0.00234 µM
[25] = RPMI 5 mM glucose + 10% dialyzed FBS, 0.00702 µM
[26] = RPMI 5 mM glucose + 10% dialyzed FBS, 0.0211 µM
[27] = RPMI 5 mM glucose + 10% dialyzed FBS, 0.0632 µM
[28] = RPMI 5 mM glucose + 10% dialyzed FBS, 0.19 µM
[29] = RPMI 5 mM glucose + 10% dialyzed FBS, 0.569 µM
[30] = RPMI 5 mM glucose + 10% dialyzed FBS, 1.71 µM
[31] = RPMI 5 mM glucose + 10% dialyzed FBS, 5.12 µM
[32] = RPMI 5 mM glucose + 10% dialyzed FBS, 15.4 µM
[33] = RPMI 5 mM glucose + 10% dialyzed FBS, 46.1 µM

SMILES | cell viability [1] [%] | cell viability [2] [%] | cell viability [3] [%] | cell viability [4] [%] | cell viability [5] [%] | cell viability [6] [%] | cell viability [7] [%] | cell viability [8] [%] | cell viability [9] [%] | cell viability [10] [%] | cell viability [11] [%] | cell viability [12] [%] | cell viability [13] [%] | cell viability [14] [%] | cell viability [15] [%] | cell viability [16] [%] | cell viability [17] [%] | cell viability [18] [%] | cell viability [19] [%] | cell viability [20] [%] | cell viability [21] [%] | cell viability [22] [%] | cell viability [23] [%] | cell viability [24] [%] | cell viability [25] [%] | cell viability [26] [%] | cell viability [27] [%] | cell viability [28] [%] | cell viability [29] [%] | cell viability [30] [%] | cell viability [31] [%] | cell viability [32] [%] | cell viability [33] [%]
COC(=O)Nc1nc2cc(C(=O)c3cccs3)ccc2[nH]1 | 121 | 107 | 110 | 55.9 | 37 | 17.8 | 25.4 | 14.6 | 10.1 | 10.2 | 36.8 | 117 | 123 | 119 | 82 | 42.2 | 18.1 | 23.3 | 16.7 | 10.5 | 11.8 | 33.1 | 120 | 114 | 128 | 96.5 | 57.6 | 27.3 | 35 | 25.1 | 17.4 | 18.5 | 48
OC(=O)C1=CC=C(NC2=NC3=C(C\N=C(/C4=CC(=CC=C34)Cl)C5=C(F)C=CC=C5F)C=N2)C=C1 | 93.9 | 101 | 97.8 | 105 | 104 | 89.4 | 77.6 | 48.5 | 27.1 | 18.6 | 18.3 | 95.8 | 99.1 | 106 | 107 | 110 | 93.9 | 74.4 | 48.9 | 27 | 24.7 | 25.1 | 98.1 | 95.1 | 96.2 | 91.4 | 101 | 95.4 | 75.7 | 52.3 | 36.6 | 32.6 | 30.7
O=C(NCC[S+](=O)([O-])c1ccc(C(F)(F)F)cn1)c1ccc(Cl)cc1 | 115 | 116 | 121 | 115 | 118 | 117 | 115 | 117 | 110 | 112 | 108 | 117 | 124 | 118 | 127 | 117 | 115 | 111 | 107 | 119 | 107 | 109 | 112 | 126 | 121 | 121 | 120 | 116 | 115 | 103 | 115 | 102 | 102
Cc1ccccc1C(C(=O)NC1CCCCC1)N(C(=O)Cn1ccnc1C)c1cccc(F)c1 (stereo unspecified) | 117 | 114 | 115 | 105 | 105 | 104 | 109 | 104 | 104 | 102 | 102 | 100 | 113 | 105 | 106 | 105 | 101 | 103 | 102 | 93.1 | 102 | 97.1 | 96.2 | 103 | 104 | 104 | 102 | 100 | 98.7 | 97.9 | 95.2 | 93.1 | 97.3
C/C=C1\NC(=O)[C@H]2CSSCC/C=C\[C@H](CC(=O)N[C@H](C(C)C)C(=O)N2)OC(=O)[C@H](C(C)C)NC1=O | 109 | 102 | 104 | 106 | 2.7 | 2.94 | 2.82 | 2.88 | 4.38 | 1.48 | 2.87 | 97.9 | 110 | 111 | 110 | 2.34 | 2.68 | 2.61 | 2.36 | 3.14 | 1.58 | 2.72 | 98.9 | 106 | 108 | 107 | 3.38 | 3.46 | 3.34 | 2.6 | 3.15 | 3.95 | 2.58
COc1cnc(N[S+](=O)([O-])c2ccc(N)cc2)nc1 | 107 | 118 | 113 | 119 | 122 | 125 | 134 | 126 | 117 | 90.1 | 45.1 | 101 | 109 | 109 | 117 | 118 | 118 | 126 | 130 | 117 | 102 | 59.2 | 111 | 108 | 122 | 119 | 127 | 118 | 128 | 124 | 119 | 104 | 67
Nc1ccccc1NC(=O)c1ccc(CNC(=O)OCc2cccnc2)cc1 | 111 | 118 | 110 | 113 | 105 | 107 | 98.4 | 73.4 | 20 | 5.58 | 4.41 | 106 | 112 | 108 | 122 | 108 | 102 | 113 | 71.6 | 27.8 | 4.9 | 3.42 | 109 | 111 | 108 | 113 | 114 | 113 | 99.6 | 69.1 | 21.4 | 5.4 | 3.96
C#Cc1cccc(Nc2ncnc3cc(OCCOC)c(OCCOC)cc23)c1 | 98.2 | 101 | 97.2 | 89.3 | 99.5 | 100 | 101 | 91.3 | 88.5 | 84.3 | 62 | 96.6 | 92.8 | 92.1 | 95.5 | 95.6 | 92 | 88.6 | 88.4 | 78.9 | 83.6 | 52.5 | 96.5 | 93.2 | 95.5 | 91.8 | 96.4 | 93.3 | 86.8 | 80.2 | 83.3 | 78.7 | 56.6
CC1=C(/C=C/C(C)=C/C=C/C(C)=C/C=C/C=C(C)/C=C/C=C(C)/C=C/C2=C(C)CCCC2(C)C)C(C)(C)CCC1 | 112 | 112 | 109 | 110 | 109 | 106 | 108 | 107 | 112 | 95.1 | 99.3 | 111 | 119 | 110 | 111 | 116 | 105 | 111 | 109 | 108 | 95.8 | 95.4 | 117 | 113 | 118 | 108 | 109 | 106 | 107 | 106 | 106 | 103 | 85.7
COc1ccc(-c2cc3nccn3c(Nc3ncccc3C(N)=O)n2)cc1OC | 103 | 112 | 110 | 112 | 113 | 119 | 117 | 115 | 116 | 114 | 109 | 97.4 | 109 | 105 | 111 | 111 | 109 | 97.4 | 104 | 114 | 107 | 96.5 | 99 | 111 | 111 | 105 | 110 | 115 | 116 | 90.9 | 114 | 101 | 102
COc1nccc(-c2c(-c3ccc(F)cc3)ncn2C2CCNCC2)n1 | 99.1 | 108 | 113 | 110 | 113 | 100 | 96 | 100 | 104 | 90.6 | 80.2 | 109 | 112 | 106 | 120 | 117 | 106 | 108 | 98.2 | 109 | 104 | 90.5 | 98.2 | 111 | 117 | 111 | 119 | 110 | 106 | 98.9 | 104 | 94.7 | 80.7
Cc1cn2c(-c3cn[nH]c3)cnc2c(Nc2ccc(C(=O)N3CCNCC3)cc2F)n1 | 98.2 | 104 | 100 | 99.8 | 101 | 103 | 104 | 97.7 | 91.9 | 73.4 | 43.5 | 105 | 98.3 | 95.7 | 91.8 | 103 | 96.8 | 95.1 | 96.9 | 90.4 | 74.6 | 49.2 | 104 | 105 | 102 | 99.5 | 105 | 107 | 109 | 95.6 | 94.4 | 65.3 | 42.5
O=C(NOCC(O)CO)c1cc(Br)c(F)c(F)c1Nc1ccc(I)cc1F (stereo unspecified) | 82.9 | 84.2 | 81.7 | 87.8 | 83.8 | 74.8 | 74.4 | 68.2 | 64.2 | 73.9 | 52.3 | 74.6 | 87.6 | 79 | 73.8 | 80.3 | 67.9 | 63.8 | 62.5 | 56.2 | 66.4 | 54.5 | 76.2 | 79.2 | 73.9 | 81.9 | 74.3 | 71.2 | 65.6 | 71.8 | 66.1 | 76.6 | 58.7
COC1=CC=CC2=C1C(=NC(=N2)C3=CC=CS3)NN4C(=O)\C=C(C)/C4=O | 94.4 | 98.3 | 104 | 92.5 | 93.2 | 86.5 | 62.2 | 56.8 | 19.7 | 4.94 | 1.01 | 90.6 | 93.7 | 92.2 | 92.9 | 84.7 | 75.4 | 62.8 | 59.7 | 21.3 | 4.06 | 0.767 | 87 | 90.7 | 94.6 | 86.7 | 87.8 | 74.1 | 62.3 | 54.9 | 23.7 | 3.09 | 0.857
CNC(=O)c1ccc(-c2cnc3ncc(Cc4ccc5ncccc5c4)n3n2)cc1F | 113 | 119 | 125 | 129 | 136 | 125 | 134 | 120 | 135 | 124 | 126 |  |  |  |  |  |  |  |  |  |  |  |  |  |  |  |  |  |  |  |  |  | 
C\C1=C\C(=O)OC2=C1C=CC(=C2)O | 122 | 121 | 121 | 122 | 109 | 116 | 108 | 107 | 106 | 102 | 93 | 112 | 119 | 115 | 122 | 109 | 114 | 107 | 111 | 99.9 | 118 | 99.1 | 122 | 115 | 114 | 122 | 120 | 108 | 114 | 104 | 103 | 104 | 106
